Measurements taken from EP0258782A2, “Use of 1-(substituted mercapto-hydroxyethyl)-triazoles in the treatment of illnesses” (BAYER AG, priority 1986, dated 1988).
In brackets after ≈: the same amount, converted by molar mass.

Columns and labels:
[1] = tested on: Aspergillus fumigatus; assay: Antimycotic in-vitro activity, serial dilution test (MIC); type: cell-based; details: Sabouraud's milieu d'epreuve, 28-37 °C, 96 h, inoculum 5 x 10^3 to 10^4 germs/ml, read-out: MHK-Werte in γ/ml Nährmedium, Aspergillus fumigatus
Protocol: (§1) Die in-vitro-Prüfungen wurden im Reihenverdünnungstest mit Keiminokula von durchschnittlich 5 x 10³ bis 10⁴ Keimen/ml Substrat durchgeführt. Als Nähmedium dienten • a) für Dermatophyten und Schimmelpilze: Sabouraud's milieu d'epreuve • b) für Hefen: Fleischextrakt-Traubenzucker-Bouillon.
(§2) Die Bebrütungstemperatur betrug 28 °C bis 37 °C, die Bebrütungsdauer lag bei 24 bis 96 Stunden bei Hefen und 96 Stunden bei Dermatophyten und Schimmelpilzen.

[2] = tested on: Candida albicans; assay: as above; type: cell-based; details: Fleischextrakt-Traubenzucker-Bouillon, 28-37 °C, 24-96 h, inoculum 5 x 10^3 to 10^4 germs/ml, read-out: MHK-Werte in γ/ml Nährmedium, Candida albicans
Protocol: as §1, §2

[3] = tested on: Microsporum canis; assay: as above; type: cell-based; details: Sabouraud's milieu d'epreuve, 28-37 °C, 96 h, inoculum 5 x 10^3 to 10^4 germs/ml, read-out: MHK-Werte in γ/ml Nährmedium, Microsporum canis
Protocol: as §1, §2

[4] = tested on: Torulopsis glabrata; assay: as above; type: cell-based; details: Nakaseomyces glabratus; Fleischextrakt-Traubenzucker-Bouillon; 28-37 °C, 24-96 h; inoculum 5 x 10^3 to 10^4 germs/ml; read-out: MHK-Werte in γ/ml Nährmedium, Torulopsis glabrata
Protocol: as §1, §2

[5] = tested on: Trichophyton mentagr.; assay: as above; type: cell-based; details: Sabouraud's milieu d'epreuve, 28-37 °C, 96 h, inoculum 5 x 10^3 to 10^4 germs/ml, read-out: MHK-Werte in γ/ml Nährmedium, Trichophyton mentagr.
Protocol: as §1, §2

[6] = tested on: Candida-Zellen; assay: Antimycotic in-vivo activity (oral) in mouse candidosis; set-up: species or system Mäuse vom Typ SPF-CF1; details: for Wirkung (Überlebende am 6. Tag p.i.): mice infected i.v. with Candida, 25-100 mg/kg oral, 1 h before and 7 h after infection; for Wirkung compared with (A) and (B): mouse candidosis, oral, statement in words
Protocol: Mäuse vom Typ SPF-CF₁ wurden intravenös mit 1 - 2 x 10⁶ logarithmisch wachsenden Candida-Zellen, die in physiologischer Kochsalzlösung suspendiert werden, infiziert. Eine Stunde vor und sieben Stunden nach der Infektion werden die Tiere mit jeweils 25 - 100 mg/kg Körpergewicht der Präparate oral behandelt.
Unbehandelte Tiere starben 3 bis 6 Tage post infektionem. Die Überlebensrate am 6.Tag post infektionem betrug bei unbehandelten Kontrolltieren etwa 5 %.

[7] = tested on: Trichophyton mentagrophytes; assay: In-vivo activity (local) in experimental guinea pig trichophytosis; set-up: species or system Meerschweinchen der Rasse Pirbright-white; details: for Wirkung (Infektionszeichen): 0,1 % solution in Dimethylsulfoxid : Glycerin = 1 : 4, local, once daily from day 3 p.i.; for Wirkung (in words): guinea pig trichophytosis, local, 0,1 % solution, statement in words
Text: Weiße Meerschweinchen der Rasse Pirbright-white wurden auf dem geschorenen, nicht skarifizierten Rücken mit einer Mikro- und Makrokoniden-Suspension von Trichophyton mentagrophytes infiziert.
Die infizierten Tiere wurden beginnend mit dem 3.Tag p.i. 1 x täglich mit einer 0,1 %igen Lösung der erdingungsgemäßen Präparate (in Dimethylsulfoxid : Glycerin = 1 : 4) lokal behandelt.
Bei unbehandelten Tieren entwickelte sich innerhalb von 12 Tagen p.i. das Typische Bild einer Dermatophytose mit Rötung, Schuppung und Haarausfall bis zum totalen Integument-Defekt an der Infektionsstelle.

MIC [1] [µg/mL]	MIC [2] [µg/mL]	MIC [3] [µg/mL]	MIC [4] [µg/mL]	MIC [5] [µg/mL]	SMILES	Wirkung (Überlebende am 6. Tag p.i.) [6]	Wirkung compared with (A) and (B) [6]	Wirkung (Infektionszeichen) [7]	Wirkung (in words) [7]
4 (≈ 12 µM)	< 1	2 (≈ 6 µM)	4 (≈ 12 µM)	2 (≈ 6 µM)	CCSCC(O)(Cn1cncn1)C(C)(C)Cc1cccc(C)c1 (stereo not drawn) [I-64]				
< 1	< 1	2 (≈ 5.69 µM)	2 (≈ 5.69 µM)	< 1	CCCSCC(O)(Cn1cncn1)C(C)(C)Cc1ccc(F)cc1 (stereo not drawn) [I-53]				
< 1	< 1	2 (≈ 4.96 µM)	16 (≈ 39.7 µM)	< 1	CCSCC(O)(Cn1cncn1)C(C)(C)Cc1ccc(OC(F)(F)F)cc1 (stereo not drawn) [I-52]	++++ (= gute Wirkung = 80 % Überlebende am 6.Tag.p.i.)	bessere Wirkung	+++++	sehr gute Wirkung
< 1	< 1	< 1	4 (≈ 10.9 µM)	< 1	CCCSCC(O)(Cn1cncn1)C(C)(C)Cc1ccc(Cl)cc1 (stereo not drawn) [I-41]				
< 1	2 (≈ 5.65 µM)	< 1	2 (≈ 5.65 µM)	< 1	CCSCC(O)(Cn1cncn1)C(C)(C)Cc1ccc(Cl)cc1 (stereo not drawn) [I-45]				
2 (≈ 5.69 µM)	2 (≈ 5.69 µM)	2 (≈ 5.69 µM)	2 (≈ 5.69 µM)	< 1	CC(C)SCC(O)(Cn1cncn1)C(C)(C)Cc1ccc(F)cc1 (stereo not drawn) [I-55]				
4 (≈ 11.5 µM)	2 (≈ 5.75 µM)	4 (≈ 11.5 µM)	16 (≈ 46 µM)	2 (≈ 5.75 µM)	Cc1cccc(CC(C)(C)C(O)(CSC(C)C)Cn2cncn2)c1 (stereo not drawn) [I-65]				
2 (≈ 4.47 µM)	8 (≈ 17.9 µM)	2 (≈ 4.47 µM)	32 (≈ 71.5 µM)	< 1	CCCCSCC(O)(Cn1cncn1)C(C)(C)Cc1ccc(SC(F)(F)F)cc1 (stereo not drawn) [I-61]				
					CC(C)(Oc1ccc(-c2ccccc2)cc1)C(O)(CSc1ccc(Cl)cc1)Cn1cncn1 (stereo not drawn) [I-93]	+++++ (= sehr gute Wirkung = 90 % Überlebende am 6.Tag.p.i.)	bessere Wirkung		
8 (≈ 20.1 µM)	< 1	2 (≈ 5.03 µM)	8 (≈ 20.1 µM)	< 1	CCCSCC(O)(Cn1cncn1)C(C)(C)COc1ccc(Cl)c(C)c1 (stereo not drawn) [I-70]				
< 1	2 (≈ 5.11 µM)	2 (≈ 5.11 µM)	16 (≈ 40.9 µM)	< 1	CC(C)(Cc1ccc(SC(F)(F)F)cc1)C(O)(CS)Cn1cncn1 (stereo not drawn) [I-63]				
< 1	< 1	< 1	8 (≈ 23.5 µM)	< 1	CSCC(O)(Cn1cncn1)C(C)(C)Cc1ccc(Cl)cc1 (stereo not drawn) [I-42]				
4 (≈ 12 µM)	< 1	2 (≈ 6 µM)	2 (≈ 6 µM)	< 1	CCSCC(O)(Cn1cncn1)C(C)(C)Cc1ccccc1C (stereo not drawn) [I-67]				
2 (≈ 5.93 µM)	< 1	2 (≈ 5.93 µM)	4 (≈ 11.9 µM)	< 1	CCSCC(O)(Cn1cncn1)C(C)(C)Cc1ccc(F)cc1 (stereo not drawn) [I-2]				
< 1	< 1	< 1	< 1	< 1	CCCSCC(O)(Cn1cncn1)C(C)(C)Cc1ccc(OC(F)(F)F)cc1 (stereo not drawn) [I-51]	++ (= schwache Wirkung = 40 % Überlebende am 6.Tag.p.i.)	bessere Wirkung		
< 1	2 (≈ 5.24 µM)	4 (≈ 10.5 µM)	4 (≈ 10.5 µM)	< 1	CCCCSCC(O)(Cn1cncn1)C(C)(C)Cc1ccc(Cl)cc1 (stereo not drawn) [I-47]				
					Cc1cc(Cl)ccc1OC(C)(C)C(O)(CSc1ccc(Cl)cc1)Cn1cncn1 (stereo not drawn) [I-94]	++++ (= gute Wirkung = 80 % Überlebende am 6.Tag.p.i.)	bessere Wirkung		
< 1	< 1	< 1	4 (≈ 10.8 µM)	< 1	CCSCC(O)(Cn1cncn1)C(C)(C)COc1ccc(Cl)cc1 (stereo not drawn) [I-68]				
2 (≈ 4.61 µM)	< 1	< 1	< 1	< 1	CC(C)SCC(O)(Cn1cncn1)C(C)(C)Cc1ccc(SC(F)(F)F)cc1 (stereo not drawn) [I-62]	++ (= schwache Wirkung = 40 % Überlebende am 6.Tag.p.i.)	bessere Wirkung		
< 1	< 1	< 1	4 (≈ 12 µM)	< 1	CCSCC(O)(Cn1cncn1)C(C)(C)Cc1ccc(C)cc1 (stereo not drawn) [I-50]				
< 1	< 1	2 (≈ 5.75 µM)	2 (≈ 5.75 µM)	< 1	CCCSCC(O)(Cn1cncn1)C(C)(C)Cc1ccc(C)cc1 (stereo not drawn) [I-49]				
< 1	< 1	< 1	4 (≈ 10.9 µM)	< 1	C=CCSCC(O)(Cn1cncn1)C(C)(C)Cc1ccc(Cl)cc1 (stereo not drawn) [I-44]				
2 (≈ 5.21 µM)	< 1	< 1	16 (≈ 41.7 µM)	< 1	CCSCC(O)(Cn1cncn1)C(C)(C)COc1ccc(Cl)c(C)c1 (stereo not drawn) [I-69]				
< 1	< 1	< 1	4 (≈ 10.5 µM)	< 1	CC(C)CSCC(O)(Cn1cncn1)C(C)(C)Cc1ccc(Cl)cc1 (stereo not drawn) [I-43]				
< 1	< 1	2 (≈ 4.85 µM)	< 1	< 1	CC(C)SCC(O)(Cn1cncn1)C(C)(C)Cc1ccc(Br)cc1 (stereo not drawn) [I-40]	+++ (= Wirkung = 60 % Überlebende am 6.Tag.p.i.)	bessere Wirkung	++++ (gute Wirkung = geringe Rötung, vereinzelt Schuppen)	gute
8 (≈ 18.4 µM)	2 (≈ 4.61 µM)	4 (≈ 9.22 µM)	< 1	< 1	CC(C)(Cc1ccc(F)cc1)C(O)(CSCc1ccc(Cl)cc1)Cn1cncn1 (stereo not drawn) [I-58]				
< 1	2 (≈ 4.61 µM)	2 (≈ 4.61 µM)	4 (≈ 9.23 µM)	< 1	CCCSCC(O)(Cn1cncn1)C(C)(C)Cc1ccc(SC(F)(F)F)cc1 (stereo not drawn) [I-60]				
< 1	< 1	4 (≈ 10.9 µM)	< 1	< 1	CC(C)SCC(O)(Cn1cncn1)C(C)(C)Cc1ccc(Cl)cc1 (stereo not drawn) [I-46]	++ (= schwache Wirkung = 40 % Überlebende am 6.Tag.p.i.)	bessere Wirkung		
4 (≈ 11.1 µM)	< 1	4 (≈ 11.1 µM)	8 (≈ 22.1 µM)	4 (≈ 11.1 µM)	CCCCSCC(O)(Cn1cncn1)C(C)(C)Cc1cccc(C)c1 (stereo not drawn) [I-66]				
